Measured values: ChEMBL document CHEMBL5528066, “Discovery of Novel N-(Anthracen-9-ylmethyl) Benzamide Derivatives as ZNF207 Inhibitors Promising in Treating Glioma” (J Med Chem, 2024)
Active and inactive are the calls of the source. No cut-off for these calls is given here.

How the values were obtained:
[1] = test system: Hs 683; assay: Inhibition of sphere formation in human Hs 683 cells assessed as fold reduction in sphere initiating frequency at 2 uM incubated for 10 days by microscopic analysis relative to control; format: functional; conditions: time 10 day
[2] = Drug concentration in male Sprague-Dawley rat brain at 45 mg/kg, po measured after 8 hrs by LC-MS/MS analysis; format: ADME, organism-based; conditions: read-out: Ct
[3] = test system: LN-229; assay: Antitumor activity against human LN-229 cells xenografted in BALB/c nude mouse assessed as tumor growth delay by measuring tumor volume at 15 mg/kg, po administered once a day and measured every 2 days for 49 days (reference value: 700 […]); format: functional; conditions: time 49 day
[4] = test system: Hs 683; assay: Inhibition of sphere formation in human Hs 683 cells at 8 uM measured after 10 days in well containing 100 cells by microscopic analysis; format: functional, cell-based; conditions: time 10.0 day
[5] = Toxicity in male C57BL/6 mouse assessed as change in cellular structure of lung at 45 mg/kg, po administered once a day for 2 weeks by H and E staining based analysis; format: organism-based; conditions: in vivo, 336 h
[6] = Drug concentration in male Sprague-Dawley rat kidney at 45 mg/kg, po measured after 8 hrs by LC-MS/MS analysis; format: ADME, organism-based; conditions: read-out: Ct
[7] = test system: LN-229; assay: Inhibition of sphere formation in human LN-229 cells at 8 uM measured after 10 days in well containing 10000 cells by microscopic analysis; format: functional, cell-based; conditions: time 10.0 day
[8] = test system: LN-229; assay: Antitumor activity against human LN-229 cells xenografted in BALB/c nude mouse assessed as reduction in proportion of Ki-67 positive cells at 15 to 45 mg/kg, po administered once a day and measured after 49 days by immunohistochemistry analysis; format: functional, organism-based; conditions: dose 15-45 mg/kg, time 49.0 day
[9] = Toxicity in male C57BL/6 mouse assessed as change in cellular structure of brain at 45 mg/kg, po administered once a day for 2 weeks by H and E staining based analysis; format: organism-based; conditions: in vivo, 336 h
[10] = Drug concentration in female Sprague-Dawley rat kidney at 45 mg/kg, po measured after 8 hrs by LC-MS/MS analysis; format: ADME, organism-based; conditions: read-out: Ct
[11] = test system: H4; assay: Inhibition of colony formation in human H4 cells assessed as reduction in number of cell clones treated on day 1 and measured after 14 days by crystal violet staining based microscopic analysis; format: functional; conditions: dose 0.625-5 µM, time 14.0 day
[12] = Drug concentration in male Sprague-Dawley rat heart at 45 mg/kg, po measured after 8 hrs by LC-MS/MS analysis; format: ADME, organism-based; conditions: read-out: Ct
[13] = test system: H4; assay: Inhibition of sphere formation in human H4 cells at 2 uM measured after 10 days in well containing 10000 cells by microscopic analysis; format: functional, cell-based; conditions: time 10.0 day
[14] = test system: LN-229; assay: Inhibition of sphere formation in human LN-229 cells at 1 uM measured after 10 days in well containing 10000 cells by microscopic analysis; format: functional, cell-based; conditions: time 10.0 day
[15] = test system: Hs 683; assay: Inhibition of sphere formation in human Hs 683 cells assessed as fold reduction in sphere initiating frequency at 4 uM incubated for 10 days by microscopic analysis relative to control; format: functional; conditions: time 10 day
[16] = test system: MDR1; assay: Apparent permeability across basolateral to apical side in MDCKII-MDR1 cells assessed as drug recovery at 1 uM incubated for 2 hrs by LC-MS/MS analysis; format: ADME, cell-based, Canis lupus familiaris; conditions: dog, MDCK-MDR1, read-out: Drug recovery
[17] = test system: Hs 683; assay: Inhibition of sphere formation in human Hs 683 cells at 4 uM measured after 10 days in well containing 10 cells by microscopic analysis; format: functional, cell-based; conditions: time 10.0 day
[18] = test system: H4; assay: Inhibition of sphere formation in human H4 cells at 8 uM measured after 10 days in well containing 100 cells by microscopic analysis; format: functional, cell-based; conditions: time 10.0 day
[19] = Toxicity in female C57BL/6 mouse assessed as change in cellular structure of stomach at 45 mg/kg, po administered once a day for 2 weeks by H and E staining based analysis; format: organism-based; conditions: in vivo, 336 h
[20] = Drug concentration in female Sprague-Dawley rat intestine at 45 mg/kg, po measured after 8 hrs by LC-MS/MS analysis; format: ADME, organism-based; conditions: read-out: Ct
[21] = test system: U-251; assay: Inhibition of sphere formation in human U-251MG cells at 1 uM measured after 10 days in well containing 1000 cells by microscopic analysis; format: functional, cell-based; conditions: time 10.0 day
[22] = Toxicity in male C57BL/6 mouse assessed as change in cellular structure of kidney at 45 mg/kg, po administered once a day for 2 weeks by H and E staining based analysis; format: organism-based; conditions: in vivo, 336 h
[23] = test system: Hs 683; assay: Inhibition of sphere formation in human Hs 683 cells at 4 uM measured after 10 days in well containing 1 cells by microscopic analysis; format: functional, cell-based; conditions: time 10.0 day
[24] = test system: U-937; assay: Antiproliferative activity against human U-937 cells assessed as inhibition of cell growth incubated for 72 hrs by CCK-8 assay; format: functional, cell-based; conditions: U-937, 72 h
[25] = test system: Hs 683; assay: Inhibition of sphere formation in human Hs 683 cells at 2 uM measured after 10 days in well containing 10 cells by microscopic analysis; format: functional, cell-based; conditions: time 10.0 day
[26] = Drug concentration in male Sprague-Dawley rat intestine at 45 mg/kg, po measured after 8 hrs by LC-MS/MS analysis; format: ADME, organism-based; conditions: read-out: Ct
[27] = test system: H4; assay: Inhibition of sphere formation in human H4 cells at 1 uM measured after 10 days in well containing 1 cells by microscopic analysis; format: functional, cell-based; conditions: time 10.0 day
[28] = test system: H4; assay: Inhibition of sphere formation in human H4 cells at 2 uM measured after 10 days in well containing 10 cells by microscopic analysis; format: functional, cell-based; conditions: time 10.0 day
[29] = Toxicity in male C57BL/6 mouse assessed as change in cellular structure of liver at 45 mg/kg, po administered once a day for 2 weeks by H and E staining based analysis; format: organism-based; conditions: in vivo, 336 h
[30] = test system: U-251; assay: Inhibition of sphere formation in human U-251MG cells assessed as fold reduction in sphere initiating frequency at 4 uM incubated for 10 days by microscopic analysis relative to control; format: functional; conditions: time 10 day
[31] = test system: U-251; assay: Antiproliferative activity against human U-251MG cells assessed as inhibition of cell growth measured after 72 hrs by CCK-8 assay; format: functional, cell-based; conditions: U-251, 72 h
[32] = test system: U-251; assay: Inhibition of sphere formation in human U-251MG cells at 4 uM measured after 10 days in well containing 1 cells by microscopic analysis; format: functional, cell-based; conditions: time 10.0 day
[33] = test system: LN-229; assay: Inhibition of sphere formation in human LN-229 cells assessed as fold reduction in sphere initiating frequency at 2 uM incubated for 10 days by microscopic analysis relative to control; format: functional; conditions: time 10 day
[34] = test system: H4; assay: Inhibition of sphere formation in human H4 cells incubated for 168 hrs by microscopic analysis; format: functional, cell-based; conditions: H4, 168 h
[35] = Drug concentration in female Sprague-Dawley rat heart at 45 mg/kg, po measured after 8 hrs by LC-MS/MS analysis; format: ADME, organism-based; conditions: read-out: Ct
[36] = test system: LN-229; assay: Antitumor activity against human LN-229 cells xenografted in BALB/c nude mouse assessed as tumor growth inhibition at 15 to 45 mg/kg, po administered once a day and measured every 2 days for 49 days relative to control; format: functional; conditions: dose 15-45 mg/kg, time 49 day
[37] = test system: Hs 683; assay: Inhibition of sphere formation in human Hs 683 cells at 4 uM measured after 10 days in well containing 100 cells by microscopic analysis; format: functional, cell-based; conditions: time 10.0 day
[38] = test system: H4; assay: Inhibition of sphere formation in human H4 cells at 1 uM measured after 10 days in well containing 10000 cells by microscopic analysis; format: functional, cell-based; conditions: time 10.0 day
[39] = test system: LN-229; assay: Inhibition of sphere formation in human LN-229 cells at 8 uM measured after 10 days in well containing 10 cells by microscopic analysis; format: functional, cell-based; conditions: time 10.0 day

SMILES: N#CC1(C(=O)NCCC2CCN(Cc3ccccc3)CC2)CC2(Br)c3ccccc3C1c1ccccc12 (racemic)
- fold change (FC) [1]: 15.75
- concentration at 8 h [2]: 9.2 ng/g
- Activity [3]: 280 mm3
- inhibition [4]: Active
- Activity [5]: Non-Toxic
- concentration at 8 h [6]: 85.1 ng/g
- inhibition [7]: inactive
- Activity [8]: Active
- Activity [9]: Non-Toxic
- concentration at 8 h [10]: 816 ng/g
- inhibition [11]: Dose-Dependent Effect
- concentration at 8 h [12]: 193 ng/g
- inhibition [13]: inactive
- inhibition [14]: inactive
- fold change (FC) [15]: 39.23
- recovery at 2 h, 1 µM [16]: 101%
- inhibition [17]: Active
- inhibition [18]: Active
- Activity [19]: Non-Toxic
- concentration at 8 h [20]: 442 ng/g
- inhibition [21]: inactive
- Activity [22]: Non-Toxic
- inhibition [23]: Active
- IC50 [24]: 14 µM
- inhibition [25]: Active
- concentration at 8 h [26]: 688 ng/g
- inhibition [27]: Active
- inhibition [28]: Active
- Activity [29]: Non-Toxic
- fold change (FC) [30]: 78.18
- IC50 [31]: 13.1 µM
- inhibition [32]: Active
- fold change (FC) [33]: 22.43
- IC50 [34]: 0.74 µM
- concentration at 8 h [35]: 783 ng/g
- TGI [36]: ~55%
- inhibition [37]: Active
- inhibition [38]: inactive
- inhibition [39]: Active
